Assay results: patent publication US8338422B2, “Indolin-2-ones and aza-indolin-2-ones” (Janssen Pharmaceutica NV, priority 2007, dated 2012)
Where “and” joins values, the source holds several entries; their conditions need not be identical. Equal values may be shown once.

Assays:
A2780 = assay: Cellular proliferation assay (Alamar blue), A2780; assay type: cell-based; conditions: A2780 cells, 72 hours with compound, 10% FCS; for IC50: Homo sapiens, A2780, 72 h, read-out: pIC50 A2780 (converted)
Method: (§1) […] functional properties of these compounds was tested in cellular proliferation assays on a panel of different cell lines in the presence of 10% FCS serum (37° C. and 5% (v/v) CO2). In a first step these cells were seeded and incubated for 24 hours in the absence of compound. In the second step the cells were incubated for 72 hours with the compounds to be tested for 72 hours. The viable cell number was finally assessed in a standard Alamar blue cell viability assay.
(§2) The viable cell number was assessed by incubation for either 4 h (HCT-116, H1299, H460) 6 h (SKOV3, HT29, U87-MG, Colo205) or 24 h (A2780, PC3, MDA-MB-231, A549, MCF-7) with Alamar blue (Resazurin 9 μg/ml, K-Ferrocyanide 90 μM K-Ferricyanide 90 μM) and the converted fluorescent product was quantified on a fluorescent plate readed (544 nm/590 nm). Effect of the compounds is calculated as of on control cells.

AuroraB (h) = AuroraB (h) (Homo sapiens, UniProt Q96GD4); assay: Aurora-B human kinase assay (SPA); assay type: biochemical; conditions: for IC50: read-out: AuroraB pIC50 (converted)
Chain of AuroraB (h) (Q96GD4 whole entry): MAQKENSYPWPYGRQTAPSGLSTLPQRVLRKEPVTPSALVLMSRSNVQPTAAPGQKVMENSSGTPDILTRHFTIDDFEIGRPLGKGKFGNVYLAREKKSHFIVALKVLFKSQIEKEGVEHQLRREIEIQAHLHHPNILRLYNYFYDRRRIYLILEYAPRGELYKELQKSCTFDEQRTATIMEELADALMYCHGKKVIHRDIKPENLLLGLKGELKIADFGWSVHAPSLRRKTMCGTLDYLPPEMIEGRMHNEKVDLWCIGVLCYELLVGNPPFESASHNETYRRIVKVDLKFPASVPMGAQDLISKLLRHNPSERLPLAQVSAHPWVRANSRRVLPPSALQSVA
Outline: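 Scintillation proximity assay: AuroraB (h) at 0.5 μg/ml with 3 μM biotinylated peptide, 0.5 μM ATP and 2.2 nM [γ-33P]ATP in 60 mM Hepes pH 7.5, 3 mM MgCl2, 3 mM MnCl2, 2 mM DTT. 60 min at room temperature, EDTA stop, streptavidin PVT beads read on Leadseeker.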

CDK1/CyclinB (h) = CDK1/CyclinB (h) (Homo sapiens, UniProt P06493); assay: CDK1/CyclinB human kinase assay (FRET); assay type: biochemical; conditions: for IC50: read-out: CDK1 pIC50 (converted)
Chain of CDK1/CyclinB (h) (P06493 whole entry): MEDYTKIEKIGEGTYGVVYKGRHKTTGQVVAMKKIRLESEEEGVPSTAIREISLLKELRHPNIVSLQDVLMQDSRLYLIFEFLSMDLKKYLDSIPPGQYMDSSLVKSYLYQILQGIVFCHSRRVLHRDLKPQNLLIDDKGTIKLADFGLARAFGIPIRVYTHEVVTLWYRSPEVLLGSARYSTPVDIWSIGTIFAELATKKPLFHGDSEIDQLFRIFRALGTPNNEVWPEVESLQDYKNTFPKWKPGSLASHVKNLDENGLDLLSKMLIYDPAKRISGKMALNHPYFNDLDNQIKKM
Chain of CDK1/CyclinB (h) (P14635 whole entry partner): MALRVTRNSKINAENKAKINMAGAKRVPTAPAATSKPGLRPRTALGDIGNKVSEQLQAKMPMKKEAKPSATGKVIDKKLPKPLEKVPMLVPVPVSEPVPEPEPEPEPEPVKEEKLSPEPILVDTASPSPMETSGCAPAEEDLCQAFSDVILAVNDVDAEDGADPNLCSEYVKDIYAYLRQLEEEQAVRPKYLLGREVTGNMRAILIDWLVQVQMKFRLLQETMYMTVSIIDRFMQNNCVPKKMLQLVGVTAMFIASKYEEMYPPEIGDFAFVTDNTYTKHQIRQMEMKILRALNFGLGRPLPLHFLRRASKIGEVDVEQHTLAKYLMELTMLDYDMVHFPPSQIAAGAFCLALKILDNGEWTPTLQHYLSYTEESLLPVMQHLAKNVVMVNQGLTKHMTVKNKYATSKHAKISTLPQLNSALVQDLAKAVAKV
Outline: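 Z'-LYTE FRET format: 0.2 μg/ml enzyme with 2 μM Ser/Thr peptide 12 and 10 μM ATP in 50 mM Hepes pH 7.5, 10 mM MgCl2, 1 mM EGTA, 0.01% Brij-35, 60 min at room temperature. Protease development 60 min; coumarin/fluorescein emission ratio (460/538 nm, excitation 390 nm) reports phosphorylation.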

PLK4 (h) = PLK4 (h) (Homo sapiens, UniProt O00444); assay: PLK-4 human kinase assay (SPA); assay type: biochemical; conditions: for IC50: read-out: PLK4 pIC50 (converted)
Chain of PLK4 (h) (O00444 whole entry): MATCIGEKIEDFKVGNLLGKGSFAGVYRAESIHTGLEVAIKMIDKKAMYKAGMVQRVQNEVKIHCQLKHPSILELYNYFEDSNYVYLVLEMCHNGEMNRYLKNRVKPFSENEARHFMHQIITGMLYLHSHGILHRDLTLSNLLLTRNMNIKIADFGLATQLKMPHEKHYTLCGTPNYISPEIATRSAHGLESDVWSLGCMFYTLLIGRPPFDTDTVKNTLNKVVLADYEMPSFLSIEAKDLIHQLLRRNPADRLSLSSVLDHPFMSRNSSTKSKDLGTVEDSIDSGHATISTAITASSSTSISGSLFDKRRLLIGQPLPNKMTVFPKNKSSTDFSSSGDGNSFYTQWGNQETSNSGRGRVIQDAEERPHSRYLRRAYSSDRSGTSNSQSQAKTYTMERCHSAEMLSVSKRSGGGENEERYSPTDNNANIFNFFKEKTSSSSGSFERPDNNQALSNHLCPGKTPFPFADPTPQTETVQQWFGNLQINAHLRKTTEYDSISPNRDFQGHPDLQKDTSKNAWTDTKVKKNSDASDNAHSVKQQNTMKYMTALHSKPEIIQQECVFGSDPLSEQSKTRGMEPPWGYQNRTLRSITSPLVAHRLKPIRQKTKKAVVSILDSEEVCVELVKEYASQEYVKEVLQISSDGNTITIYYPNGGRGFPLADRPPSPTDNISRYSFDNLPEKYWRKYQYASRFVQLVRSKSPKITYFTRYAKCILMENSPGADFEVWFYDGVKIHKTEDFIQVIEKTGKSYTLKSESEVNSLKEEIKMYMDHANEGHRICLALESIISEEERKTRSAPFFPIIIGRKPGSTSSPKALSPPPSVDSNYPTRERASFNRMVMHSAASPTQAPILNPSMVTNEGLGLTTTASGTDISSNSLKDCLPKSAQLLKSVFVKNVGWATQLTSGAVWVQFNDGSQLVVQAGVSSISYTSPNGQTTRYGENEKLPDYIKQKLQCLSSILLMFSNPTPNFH
Outline: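 Radiometric readout: 33P-labelled peptide captured on streptavidin SPA beads after EDTA stop, imaged by Leadseeker. Reaction ran 60 min at room temperature in Hepes pH 8.0 buffer. It contained 1 μM ATP with 2 nM [γ-33P]ATP, 10 μM biotinylated peptide and PLK4 (h) at 19 μg/ml.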

MDA/MB231 = assay: Cellular proliferation assay (Alamar blue), MDA/MB231; assay type: cell-based; conditions: MDA/MB231 cells, 72 hours with compound, 10% FCS; for IC50: Homo sapiens, MDA-MB-231, 72 h, read-out: pIC50 MDA/MB231 (converted)
Method: as §1, §2

U87MG = assay: Cellular proliferation assay (Alamar blue), U87MG; assay type: cell-based; conditions: U87MG cells, 72 hours with compound, 10% FCS; for IC50: Homo sapiens, U-87 MG, 72 h, read-out: pIC50 U87MG (converted)
Method: as §1, §2

H1299 = assay: Cellular proliferation assay (Alamar blue), H1299; assay type: cell-based; conditions: H1299 cells, 72 hours with compound, 10% FCS; for IC50: Homo sapiens, NCI-H1299, 72 h, read-out: pIC50 H1299 (converted)
Method: as §1, §2

GSK3β (h) = GSK3β (h) (Homo sapiens, UniProt P49841); assay: GSK-3β human kinase assay (SPA); assay type: biochemical; conditions: for IC50: read-out: GSK3B pIC50 (converted)
Chain of GSK3β (h) (P49841 whole entry): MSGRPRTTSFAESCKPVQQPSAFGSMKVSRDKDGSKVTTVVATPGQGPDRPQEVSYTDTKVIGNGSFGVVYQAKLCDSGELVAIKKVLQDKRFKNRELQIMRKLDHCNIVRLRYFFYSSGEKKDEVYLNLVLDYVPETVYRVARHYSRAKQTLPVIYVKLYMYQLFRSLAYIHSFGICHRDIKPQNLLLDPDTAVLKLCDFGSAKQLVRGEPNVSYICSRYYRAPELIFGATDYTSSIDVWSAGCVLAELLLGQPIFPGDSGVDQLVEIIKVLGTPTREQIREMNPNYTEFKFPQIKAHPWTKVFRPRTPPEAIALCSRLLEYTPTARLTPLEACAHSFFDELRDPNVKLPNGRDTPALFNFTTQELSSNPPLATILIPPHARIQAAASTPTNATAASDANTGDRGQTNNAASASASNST
Outline: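 Radiometric SPA read-out: after EDTA stop, biotinylated 33P-labelled peptide bound streptavidin PVT beads and was imaged on Leadseeker. Reaction: 60 min, room temperature, GSK3β (h) at 1 μg/ml, 1 μM substrate peptide, 1 μM ATP with 2 nM [γ-33P]ATP, Tris pH 7.4/MgCl2/DTT buffer.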

HCT-116 = assay: Cellular proliferation assay (Alamar blue), HCT-116; assay type: cell-based; conditions: HCT-116 cells, 72 hours with compound, 10% FCS; for IC50: Homo sapiens, HCT-116, 72 h, read-out: pIC50 HCT-116 (converted)
Method: as §1, §2

PC-3 = assay: Cellular proliferation assay (Alamar blue), PC-3; assay type: cell-based; conditions: PC-3 cells, 72 hours with compound, 10% FCS; for IC50: Homo sapiens, PC-3, 72 h, read-out: pIC50 PC-3 (converted)
Method: as §1, §2

CN1CCCNc2ncnc3c2C(=CNc2cccc(c2)OCCCC1=O)C(=O)N3 (mixture of isomers) [Compound 35]
pIC50 A2780 (A2780): 5.17
AuroraB pIC50 (AuroraB (h)): 6.88
CDK1 pIC50 (CDK1/CyclinB (h)): 6.56
PLK4 pIC50 (PLK4 (h)): 7.01
pIC50 MDA/MB231 (MDA/MB231): <5
pIC50 U87MG (U87MG): 5.50
pIC50 H1299 (H1299): 5.62
GSK3B pIC50 (GSK3β (h)): 7.4
pIC50 HCT-116 (HCT-116): 5.85
pIC50 PC-3 (PC-3): 5.31

COc1ccc2cc1OCCCCC(=O)NCCN(C)c1ncnc3c1C(=CN2)C(=O)N3 (mixture of isomers) [Compound 44]
pIC50 A2780 (A2780): <5
AuroraB pIC50 (AuroraB (h)): <5
CDK1 pIC50 (CDK1/CyclinB (h)): <5
PLK4 pIC50 (PLK4 (h)): 5.22
pIC50 MDA/MB231 (MDA/MB231): <5
pIC50 U87MG (U87MG): <5
pIC50 H1299 (H1299): <5
GSK3B pIC50 (GSK3β (h)): 5.31
pIC50 HCT-116 (HCT-116): <5
pIC50 PC-3 (PC-3): <5

COc1ccc2cc1OCCCCCC(=O)NCCN(C)c1ncnc3c1C(=CN2)C(=O)N3 (mixture of isomers) [Compound 46]
pIC50 A2780 (A2780): <5
AuroraB pIC50 (AuroraB (h)): 5.13
CDK1 pIC50 (CDK1/CyclinB (h)): <5
PLK4 pIC50 (PLK4 (h)): 5.18
pIC50 MDA/MB231 (MDA/MB231): <5
pIC50 U87MG (U87MG): 5.04
pIC50 H1299 (H1299): <5
GSK3B pIC50 (GSK3β (h)): 5.07
pIC50 HCT-116 (HCT-116): <5
pIC50 PC-3 (PC-3): <5

CN1CCNc2ncnc3c2C(=CNc2cccc(c2)OCCCC1=O)C(=O)N3 (mixture of isomers) [Compound 58]
pIC50 A2780 (A2780): 6.2
AuroraB pIC50 (AuroraB (h)): 6.33
CDK1 pIC50 (CDK1/CyclinB (h)): 6.16
PLK4 pIC50 (PLK4 (h)): 6.75
pIC50 MDA/MB231 (MDA/MB231): <5
pIC50 U87MG (U87MG): 5.13
pIC50 H1299 (H1299): 5.89
GSK3B pIC50 (GSK3β (h)): 6.88
pIC50 HCT-116 (HCT-116): 6.17
pIC50 PC-3 (PC-3): <5

CN1CCNC(=O)CCCCOc2cccc(c2)N/C=C2\C(=O)Nc3ncnc1c32 [Compound 43]
IC50 (A2780): > 10 µM
IC50 (CDK1/CyclinB (h)): 4.27 µM
IC50 (PLK4 (h)): 2.63 µM
IC50 (MDA/MB231): > 10 µM
IC50 (U87MG): > 10 µM
IC50 (H1299): > 10 µM
IC50 (GSK3β (h)): 2.51 µM
IC50 (HCT-116): > 10 µM
IC50 (PC-3): > 10 µM

CN1CCCNc2ncnc3c2/C(=C/Nc2cc(cc(C(F)(F)F)c2)OCCCC1=O)C(=O)N3 [Compound 113]
IC50 (A2780): > 10 µM
IC50 (AuroraB (h)): 1.38 µM
IC50 (CDK1/CyclinB (h)): > 10 µM
IC50 (MDA/MB231): > 10 µM
IC50 (U87MG): > 10 µM
IC50 (H1299): > 10 µM
IC50 (GSK3β (h)): > 10 µM
IC50 (HCT-116): > 10 µM
IC50 (PC-3): > 10 µM

CN1CCNC(=O)CCCOc2cccc(c2)N/C=C2\C(=O)Nc3ncnc(c32)NCC1 [Compound 159]
IC50 (A2780): > 10 µM
IC50 (AuroraB (h)): > 10 µM
IC50 (PLK4 (h)): 4.37 µM
IC50 (MDA/MB231): > 10 µM
IC50 (U87MG): > 10 µM
IC50 (H1299): > 10 µM
IC50 (GSK3β (h)): 2.88 µM
IC50 (HCT-116): > 10 µM
IC50 (PC-3): > 10 µM

CN1CCNC(=O)COc2cccc(c2)N/C=C2\C(=O)Nc3ncnc(c32)NCC1 [Compound 167]
pIC50 A2780 (A2780): 5.13
IC50 (A2780): 5.89 µM
IC50 (AuroraB (h)): 6.76 µM and 3.24 µM
IC50 (PLK4 (h)): 2.4 µM
IC50 (MDA/MB231): > 10 µM
IC50 (U87MG): > 10 µM
IC50 (H1299): > 10 µM
IC50 (GSK3β (h)): 0.933 µM and 1.12 µM
pIC50 HCT-116 (HCT-116): 5.06
IC50 (HCT-116): 5.5 µM
IC50 (PC-3): > 10 µM

CN1CCNc2ncnc3c2/C(=C/Nc2cccc(c2)OCC(=O)N2CCC[C@@H]2C1)C(=O)N3 [Compound 168]
IC50 (A2780): > 10 µM
IC50 (AuroraB (h)): > 10 µM
IC50 (PLK4 (h)): > 10 µM and 6.17 µM
IC50 (MDA/MB231): > 10 µM
IC50 (U87MG): > 10 µM
IC50 (H1299): > 10 µM
IC50 (GSK3β (h)): 7.59 µM and 5.75 µM
IC50 (HCT-116): > 10 µM
IC50 (PC-3): > 10 µM

CN1CCNc2ncnc3c2/C(=C/Nc2cccc(c2)OCC(=O)N[C@H](Cc2ccccc2)C1)C(=O)N3 [Compound 169]
pIC50 A2780 (A2780): 5.08
IC50 (A2780): 9.12 µM
IC50 (AuroraB (h)): 3.55 µM
IC50 (PLK4 (h)): 1.82 µM and 2 µM
IC50 (MDA/MB231): > 10 µM
IC50 (U87MG): 7.41 µM
pIC50 U87MG (U87MG): <5
pIC50 H1299 (H1299): <5
IC50 (H1299): 8.32 µM
IC50 (GSK3β (h)): 1.86 µM and 3.24 µM
pIC50 HCT-116 (HCT-116): 5.07
IC50 (HCT-116): > 10 µM
IC50 (PC-3): > 10 µM

CN1CCCNc2ncnc3c2/C(=C/Nc2cccc(c2)OCC(=O)N2CCC[C@@H]2C1)C(=O)N3 [Compound 170]
IC50 (A2780): > 10 µM
IC50 (AuroraB (h)): > 10 µM
IC50 (PLK4 (h)): 7.41 µM
IC50 (MDA/MB231): > 10 µM
IC50 (U87MG): > 10 µM
IC50 (H1299): > 10 µM
IC50 (GSK3β (h)): 8.91 µM
IC50 (HCT-116): > 10 µM
IC50 (PC-3): > 10 µM

CN1CCCNc2ncnc3c2/C(=C/Nc2cccc(c2)OCC(=O)N[C@H](Cc2ccccc2)C1)C(=O)N3 [Compound 176]
IC50 (A2780): > 10 µM
IC50 (AuroraB (h)): 6.76 µM
IC50 (PLK4 (h)): 0.468 µM
IC50 (MDA/MB231): > 10 µM
IC50 (U87MG): > 10 µM
IC50 (H1299): > 10 µM
IC50 (GSK3β (h)): 9.55 µM
IC50 (HCT-116): > 10 µM
IC50 (PC-3): > 10 µM

CN1CCNc2ncnc3c2/C(=C/Nc2ccc(Cl)c(c2)OCC(=O)N2CCC[C@@H]2C1)C(=O)N3 [Compound 192]
IC50 (A2780): 3.09 µM
IC50 (AuroraB (h)): > 10 µM
IC50 (PLK4 (h)): > 10 µM
IC50 (MDA/MB231): > 10 µM
IC50 (U87MG): > 10 µM
IC50 (H1299): 2.51 µM
IC50 (GSK3β (h)): 5.01 µM
IC50 (HCT-116): 2.19 µM
IC50 (PC-3): > 10 µM
